Data from US20040162247A1, “Therapeutic agent or osteoporosis comprising an active ingredient of quercetin derivatives” (priority 2000, published 2004).
Several values for one entry are separate records, joined by “and”; a condition that tells them apart may be missing. Equal entries are not always repeated.

Legend:
ovariectomized rats [1] = test: Complete blood count in ovariectomized rats; type: in vivo, Female SD (Sprague-Dawley) rats; conditions: rat, in vivo
Procedure: (§1) When test agents were administered, for a certain period of time before and after administration, 1.5 ml of blood was sampled from tail vein using a catheter (B.D Co.: 24 G) and subjected to complete blood count (Coulter Co.: JT) and biochemical analyses of plasma (Crone Co.: Airon® 200). During autopsy, blood was sampled from caudal venae cavae and subjected to the analyses above. And then, each sample was frozen to store for measurement of trabecular bone area of femur and examination of internal organs.
Complete blood count which reflects the condition and abnormality of the body was measured to find out abnormality in test animals caused by administrtion of agents. That is, to find out changes in hematopoiesis of test rats, measured were red blood cell (RBC) count, concentration of hemoglobin (Hb) and hematocrit (Ht) of-blood samples obtained from the rats prior to operation and the rats 10 weeks after administrating agents following operation, and to find out changes in immune system such as inflammation and necrosis of tissues, measured were white blood cell count, lymphocyte count, monocyte count, and granulocyte count (see: Table 7).

ovariectomized rats [2] = test: Biochemical parameters in plasma of ovariectomized rats; type: in vivo, Female SD (Sprague-Dawley) rats; conditions: rat, in vivo
Procedure: as §1
Since blood reflects the condition of body, safety of quercetin in the body was evaluated by measuring biochemical parameters: that is, blood samples were obtained from the rat prior to operation, one week after operation, and 10 weeks after operation, and measured were levels of alkaline phosphatase (ALP), calcium, inorganic phosphate, blood urea nitrogen (BUN), creatinin, total cholesterol, HDL-cholesterol and LDL-cholesterol (see: Table 8).

[3] = rat, in vivo
Procedure: Female SD (Sprague-Dawley) rats, a model animal for type I osteoporosis occurring after menopause were employed for evaluating pharmacological effectiveness of quercetin. Female rats (10 weeks old) weighing 200 to 300 g, obtained from the Korea Research Institute of Chemical Technology were employed as experimental animals. Experiment was carried out by the procedure which comprises removing ovary, administration of agents to the each group of rats, and at certain days after ovariectomy, the rats were sacrificed and subjected to analyses including measurement of body weight, examination of internal organs, measurement of trabecular bone area, complete blood count, and biochemical analyses of plasma.
The Sham group, animals operated upon for the surgery as in the ovariectomized rats except for removing ovary, were employed to compare the changes caused solely by ovariectomy in control group which were ovariectomized but no agent was administered. Control group was employed to compare the changes caused by administration of agents in test group which were ovariectomized and administered with testing agents.
During the period of administration, blood was sampled once a week. After 9-week administration, entire blood was withdrawn with heparin treatment. Following complete blood count (CBC), the blood was centrifuged at 3,000 rpm for 20 minutes to obtain plasma which was stored at −70° C. until use. For measurement of bone mineral density, the lumbar spine L5 and L6, and right tibia were removed and stored separately in 4% (v/v) formalin solution.

ovariectomized rats [4] = test: Trabecular bone area of lumbars in ovariectomized rats;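 on Change Rate (%) of TBA of lumbars, of control group: control group rats were ovariectomized and are not the sham group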; type: in vivo, Female SD (Sprague-Dawley) rats; conditions: OVX rats, 9 weeks i.p. (E2 1 μg/kg/day; quercetin, genistein 10 mg/kg/day)
Procedure: (§2) Trabecular bone area (TBA) of lumbar and tibia removed from the rats of each group which was treated with various agents for 9 weeks were measured as follows: that is, using a digitalizer of quantitative image analysis system (Wild Leitz Co.), image of each trabecula was obtained on computer monitor by drawing a contour of the trabecula, and then, using a computer, calculated were average areas of trabeculae within a rectangle of 2×10^6 μm^2 area wherein the width is about ⅔ of the length of growth plate which located underneath of growth plate at proximity of tibia. Also, following the number of trabeculae within the rectangle were obtained, average area was multiplied by the number of trabeculae to obtain trabecular bone area of each sample bone, which was analyzed statistically (see: Table 5).
TBAs of lumbars removed from the animal treated with test agents for 9 weeks were measured employing the same method above (see: Table 6).

ovariectomized rats [5] = test: Trabecular bone area of tibia in ovariectomized rats;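 on Change Rate (%) of TBA of tibia, of control group: control group rats were ovariectomized and are not the sham group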; type: in vivo, Female SD (Sprague-Dawley) rats; conditions: OVX rats, 9 weeks i.p. (E2 1 μg/kg/day; quercetin, genistein 10 mg/kg/day)
Procedure: as §2

Structure (SMILES): C[C@]12CC[C@@H]3c4ccc(O)cc4CC[C@H]3[C@@H]1CC[C@@H]2O [E2, 17β-estradiol]
- Concentration of hemoglobin(Hb) (ovariectomized rats [1]): 15.86 ± 0.24 g/dL
- Hematocrit(Ht) (ovariectomized rats [1]): 43.11 ± 0.55%
- Lymphocyte and granulocyte count, before versus after operation (in words) (ovariectomized rats [1]): rapid decrease
- Lymphocyte count (ovariectomized rats [1]): 17.80 ± 1.72 ×10^3 cells/μl
- Red blood cell(RBC) count (ovariectomized rats [1]): 7.33 ± 0.13 ×10^6 cells/μl
- White blood cell count (ovariectomized rats [1]): 23.14 ± 1.50 ×10^3 cells/μl
- White blood cell count, before versus after operation (in words) (ovariectomized rats [1]): decreased
- Concentration of ALP in plasma (ovariectomized rats [2]): 196.01 ± 28.34 U/dL
- Concentration of HDL-cholesterol in plasma (ovariectomized rats [2]): 52.30 ± 2.01 mg/dL
- Concentration of LDL-cholesterol in plasma (ovariectomized rats [2]): 24.49 ± 1.63 mg/dL
- Concentration of blood urea nitrogen (BUN) (ovariectomized rats [2]): 18.36 ± 1.01 mg/dL
- Concentration of calcium in plasma (ovariectomized rats [2]): 10.86 ± 0.40 mg/dL
- Concentration of creatinin in plasma (ovariectomized rats [2]): 0.55 ± 0.05 mg/dL
- Concentration of inorganic phosphate in plasma (ovariectomized rats [2]): 6.90 ± 0.52 mg/dL
- Concentration of total cholesterol in plasma (ovariectomized rats [2]): 76.79 ± 2.80 mg/dL
- Weight [3]: 228.51 ± 8.11 g
- TBA (trabecular bone area) of lumbars (ovariectomized rats [4]): 89.16 ± 2.83 ×10^4 μm^2
- Change Rate (%) of TBA of lumbars, of control group (ovariectomized rats [4]; control group = 100): 132% and 132.04 ± 4.19 %
- TBA (trabecular bone area) of tibia (ovariectomized rats [5]): 51.40 ± 2.28 ×10^4 μm^2
- Change Rate (%) of TBA of tibia, of control group (ovariectomized rats [5]; control group = 100): 148% and 148.46 ± 6.59%
